Experimental data: patent US10653670B2, “Use of indole compounds for fat reduction and skin and soft tissue tightening” (Alevere Medical Corporation, priority 2013, dated 2020)
Entries after “also recorded” stand apart in the source; their conditions may differ.

Key:
adipocytes [1] = assay: LIVE/DEAD calcein/ethidium bromide assay, adipocyte kill rate; format: cell-based, human; conditions: for Adipocyte, averaged ethidium numbers: kill rate (ethidium), all tissue types on the same plate; for adipocyte kill rate / aggressiveness: Example 2, FIGS. 5-8 and table
Description: (§1) The time and concentration dependent effects of drug substance on both cell viability and toxicity were evaluated using a two-color fluorescence assay that measures plasma membrane integrity and intracellular enzyme activity. Live cells are determined by the strong fluorescence of calcein AM upon enzymatic conversion. […] The ratio of ethidium to calcein fluorescence is an excellent measure of the relative amount of live and dead cells.
(§2) Initial screening was performed using a variety of cell viability and cytotoxicity assays, including Presto Blue® (Invitrogen, Grand Island, N.Y.), Alamar Blue® (Invitrogen, Grand Island, N.Y.), Cyto-Tox One® (Promega, Madison, Wis.), and Cell Titer Glo® (Promega, Madison, Wis.). […] An MTT terazolium assay was performed, as well as LDH and ATP based assays. […] The LIVE/DEAD® for mammalian cells assay was used. LIVE/DEAD® for mammalian cells assay is a calcein (live read)/ethidium bromide (dead) multiplex assay.
(§3) A sample of DMSO/PBS was a negative control. A sample of Aqualyx® was a positive control. In the table, 24M is phosphatidylcholine 25 mg/ml plus deoxycholate 12 mg/and 25N is C 50/DC24; these were positive controls. The numbers in the table refer to averaged ethidium numbers. The percentages represent the relative kill rate for each cell type when rated against the adipocyte kill rate for that compound. All tissue types were tested on the same plate against adipocytes in order to standardize results.
(§4) Over seventy compounds of the embodiments were tested for adipocytolysis, then for tissue preference. A consistent assay with multiplex information was a calcein/ethidium bromide assay that assesses cell viability and cell death simultaneously. Cell viability was checked using the Countess device. All plates were inoculated with 100 microliters of the appropriate cell types. A 6 well repeat was used to verify results. Cell types used included cultured human adult derived adipocytes, dermal fibroblasts, skeletal muscle cells, and endothelial cells (Cell Applications, Inc., San Diego, Calif.). Human peripheral nerve cells (Innoprot, Spain) were also used.
(§5) Compounds were formulated using a DMSO/PBS excipient. A 10 mg/ml concentration was used. One hundred microliters of test compound was inserted into 6 wells of 5 cell types, placed in adjacent rows. The plates were incubated for 4 hours. Indicator was added to each well, and plates were read at 45 minutes using a fluorescence spectrophotometer (Molecular Devices, Sunnyvale, Calif.).

dermal fibroblasts = format: cell-based; conditions: for Dermis, averaged ethidium numbers: kill rate (ethidium), same plate as adipocytes; for Dermis, relative kill rate rated against the adipocyte kill rate: percentage in brackets; for toxicity to dermis / dermal fibroblasts: Example 2, FIGS. 6-8
Description: as §1, §2, §3, §4, §5

nerve cells = format: cell-based; conditions: for Nerve, averaged ethidium numbers: kill rate (ethidium), same plate as adipocytes; for Nerve, relative kill rate rated against the adipocyte kill rate: percentage in brackets; for toxicity to nerve cells: Example 2, FIGS. 6-8
Description: as §1, §2, §3, §4, §5

skeletal muscle cells = assay: LIVE/DEAD calcein/ethidium bromide assay, muscle cell kill rate; format: cell-based, human; conditions: for Muscle, averaged ethidium numbers: kill rate (ethidium), same plate as adipocytes; for Muscle, relative kill rate rated against the adipocyte kill rate: percentage in brackets
Description: as §1, §2, §3, §4, §5

endothelial cells = assay: LIVE/DEAD calcein/ethidium bromide assay, endothelial cell kill rate; format: cell-based, human; conditions: for Endothelial, averaged ethidium numbers: kill rate (ethidium), same plate as adipocytes; for Endothelial, relative kill rate rated against the adipocyte kill rate: percentage in brackets
Description: as §1, §2, §3, §4, §5

[2] = test system: adipocytes over nerve cells, dermal cells, muscle cells, and endothelial cells; assay: LIVE/DEAD assay, tissue preference (adipocytes versus other cell types); format: cell-based, human; conditions: for tissue specificity / tissue preference: Example 2, FIGS. 5-8 and table, 2 and 5 hours in FIGS. 6-8; for tissue preference for adipocytes: Example 2
adipocytes [3] = assay: Histology of injected immediate ex-vivo abdominoplasty tissue; format: cell-based, human; conditions: at 1 hour
Description: As the indole group has not been previously used for intralesional fat reduction, a method of obtaining histologic specimens had to be modified.
The tissue model described herein, therefore, was immediate ex-vivo abdominoplasty tissue that had been permitted for use by the surgical patient. Segments of abdominal skin and subcutaneous fat were injected with identified test compounds, plus a negative saline control and three positive controls: 1% deoxycholate, the commercial preparation of Aqualyx®, and the Network Lipolysis PC/DC formula.
Because there was no host; inflammatory changes would not be expected. This study was only performed to assess the immediacy of adipocyte changes, and to determine the method of action of each compound.

For `O=Cc1c[nH]c2ccccc12` [Compound 1, 1H-indole-3-carbaldehyde], the “Adipocyte, averaged ethidium numbers” value (adipocytes [1]) was 53, the “Dermis, averaged ethidium numbers” value (dermal fibroblasts) was 56 and the “Nerve, averaged ethidium numbers” value (nerve cells) was 60. The “Muscle, averaged ethidium numbers” value (skeletal muscle cells) was 82, the “Endothelial, averaged ethidium numbers” value (endothelial cells) was 98 and the “tissue specificity / tissue preference” value [2] was “no preference”.
`O=Cc1cc2ccccc2[nH]1` [Compound 2, 1H-indole-2-carbaldehyde] was tested, and the “adipocyte kill rate / aggressiveness” value (adipocytes [1]) was “aggressive; also recorded: most aggressive”, the “Adipocyte, averaged ethidium numbers” value (adipocytes [1]) was 360 and the “Dermis, averaged ethidium numbers” value (dermal fibroblasts) was 101. For the same molecule, the “Dermis, relative kill rate rated against the adipocyte kill rate” value (“Dermis, relative kill rate rated” for short) (dermal fibroblasts) was 28%, the “Nerve, averaged ethidium numbers” value (nerve cells) was 124 and the “Nerve, relative kill rate rated against the adipocyte kill rate” value (from here on “Nerve, relative kill rate rated”) (nerve cells) was 39%. For the same molecule, the “Muscle, averaged ethidium numbers” value (skeletal muscle cells) was 93, the “Muscle, relative kill rate rated against the adipocyte kill rate” value (from here on “Muscle, relative kill rate rated”) (skeletal muscle cells) was 26% and the “Endothelial, averaged ethidium numbers” value (endothelial cells) was 116. For the same molecule, the “Endothelial, relative kill rate rated against the adipocyte kill rate” value (from here on “Endothelial, relative kill rate rated”) (endothelial cells) was 32%, the “tissue specificity / tissue preference” value [2] was “most strongly tissue preferential; also recorded: high specificity” and the “histology finding / mechanism of action” value (adipocytes [3]) was “more cytolysis than apoptosis”.
`O=Cc1ccc2[nH]ccc2c1` [Compound 3, 1H-indole-5-carbaldehyde] was tested, and the “Adipocyte, averaged ethidium numbers” value (adipocytes [1]) was 42.5, the “Dermis, averaged ethidium numbers” value (dermal fibroblasts) was 26.5 and the “Dermis, relative kill rate rated” value (dermal fibroblasts) was 62%. For the same molecule, the “Nerve, averaged ethidium numbers” value (nerve cells) was 26, the “Nerve, relative kill rate rated” value (nerve cells) was 61% and the “Muscle, averaged ethidium numbers” value (skeletal muscle cells) was 25. The “Muscle, relative kill rate rated” value (skeletal muscle cells) was 59%, the “Endothelial, averaged ethidium numbers” value (endothelial cells) was 25 and the “Endothelial, relative kill rate rated” value (endothelial cells) was 59%. The “tissue specificity / tissue preference” value [2] was “moderate preference”.
In the case of `O=Cc1cccc2cc[nH]c12` [Compound 4, 1H-indole-7-carbaldehyde], the “adipocyte kill rate / aggressiveness” value (adipocytes [1]) is reported as “less aggressive”, the “Adipocyte, averaged ethidium numbers” value (adipocytes [1]) is reported as 127 and the “Dermis, averaged ethidium numbers” value (dermal fibroblasts) is reported as 79. For the same molecule, the “Dermis, relative kill rate rated” value (dermal fibroblasts) was 62%, the “Nerve, averaged ethidium numbers” value (nerve cells) was 66 and the “Nerve, relative kill rate rated” value (nerve cells) was 52%. The “Muscle, averaged ethidium numbers” value (skeletal muscle cells) was 99, the “Muscle, relative kill rate rated” value (skeletal muscle cells) was 78% and the “Endothelial, averaged ethidium numbers” value (endothelial cells) was 86. For the same molecule, the “Endothelial, relative kill rate rated” value (endothelial cells) was 63%, the “tissue preference for adipocytes” value [2] was “about 50%” and the “tissue specificity / tissue preference” value [2] was “shows specificity for adipocyte killing”.
`O=Cc1cccc2[nH]ccc12` [Compound 5, 1H-indole-4-carbaldehyde] was tested, and the “Adipocyte, averaged ethidium numbers” value (adipocytes [1]) was 36, the “toxicity to dermis / dermal fibroblasts” value (dermal fibroblasts) was “late dermal spike” and the “Dermis, averaged ethidium numbers” value (dermal fibroblasts) was 17. For the same molecule, the “Dermis, relative kill rate rated” value (dermal fibroblasts) was 47%, the “toxicity to nerve cells” value (nerve cells) was “more nerve preservation” and the “Nerve, averaged ethidium numbers” value (nerve cells) was 17. The “Nerve, relative kill rate rated” value (nerve cells) was 47%, the “Muscle, averaged ethidium numbers” value (skeletal muscle cells) was 27 and the “Muscle, relative kill rate rated” value (skeletal muscle cells) was 75%. The “Endothelial, averaged ethidium numbers” value (endothelial cells) was 16, the “Endothelial, relative kill rate rated” value (endothelial cells) was 44% and the “tissue preference for adipocytes” value [2] was “about 50%”.
`O=Cc1c[nH]c2c3c(ccc12)CCC3` [Compound 7, 1,6,7,8-tetrahydrocyclopenta[g]indole-3-carbaldehyde] was tested, and the “Adipocyte, averaged ethidium numbers” value (adipocytes [1]) was 196, the “Dermis, averaged ethidium numbers” value (dermal fibroblasts) was 103 and the “Dermis, relative kill rate rated” value (dermal fibroblasts) was 53%. The “Nerve, averaged ethidium numbers” value (nerve cells) was 56, the “Nerve, relative kill rate rated” value (nerve cells) was 30% and the “Muscle, averaged ethidium numbers” value (skeletal muscle cells) was 119. For the same molecule, the “Muscle, relative kill rate rated” value (skeletal muscle cells) was 61%, the “Endothelial, averaged ethidium numbers” value (endothelial cells) was 69 and the “Endothelial, relative kill rate rated” value (endothelial cells) was 35%. For the same molecule, the “tissue specificity / tissue preference” value [2] was “not tissue preference”.
With `O=C(O)CCCc1c[nH]c2ccccc12` [Compound 10, 4-(1H-indol-3-yl) butanoic acid] the “adipocyte kill rate / aggressiveness” value (adipocytes [1]) was “most aggressive”, the “Adipocyte, averaged ethidium numbers” value (adipocytes [1]) was 45 and the “Dermis, averaged ethidium numbers” value (dermal fibroblasts) was 10. The “Dermis, relative kill rate rated” value (dermal fibroblasts) was 22%, the “Nerve, averaged ethidium numbers” value (nerve cells) was 12 and the “Nerve, relative kill rate rated” value (nerve cells) was 27%. For the same molecule, the “Muscle, averaged ethidium numbers” value (skeletal muscle cells) was 13, the “Muscle, relative kill rate rated” value (skeletal muscle cells) was 29% and the “Endothelial, averaged ethidium numbers” value (endothelial cells) was 16.5. The “Endothelial, relative kill rate rated” value (endothelial cells) was 37%.
In the case of `O=C(O)c1cccc2[nH]ccc12` [Compound 27, 1H-indole-4-carboxylic acid], the “tissue specificity / tissue preference” value [2] is reported as “high specificity”.
With `O=C(O)c1ccc2[nH]ccc2c1` [Compound 28, 1H-indole-5-carboxylic acid] the “adipocyte kill rate / aggressiveness” value (adipocytes [1]) was “high kill rate” and the “tissue specificity / tissue preference” value [2] was “high specificity”.
For `O=C(O)c1c[nH]c2ccccc12` [Compound 30, 1H-indole-3-carboxylic acid], the “tissue preference for adipocytes” value [2] was “about 50%”.
With `O=C(O)c1cc2cc(Br)ccc2[nH]1` [Compound 40, 5-bromo-1H-indole-2-carboxylic acid] the “adipocyte kill rate / aggressiveness” value (adipocytes [1]) was “moderate”, the “Adipocyte, averaged ethidium numbers” value (adipocytes [1]) was 123 and the “Dermis, averaged ethidium numbers” value (dermal fibroblasts) was 33. For the same molecule, the “Dermis, relative kill rate rated” value (dermal fibroblasts) was 27%, the “Nerve, averaged ethidium numbers” value (nerve cells) was 61 and the “Nerve, relative kill rate rated” value (nerve cells) was 50%. The “Muscle, averaged ethidium numbers” value (skeletal muscle cells) was 36, the “Muscle, relative kill rate rated” value (skeletal muscle cells) was 29% and the “Endothelial, averaged ethidium numbers” value (endothelial cells) was 40. For the same molecule, the “Endothelial, relative kill rate rated” value (endothelial cells) was 33% and the “tissue specificity / tissue preference” value [2] was “most strongly tissue preferential; also recorded: tissue specificity at two time points; also recorded: high specificity”.
For `O=Cc1c[nH]c2cccc(OCc3ccccc3)c12` [Compound 43, 4-(benzyloxy)-1H-indole-3-carbaldehyde], the “adipocyte kill rate / aggressiveness” value (adipocytes [1]) was “aggressive; also recorded: adipolytic”, the “Adipocyte, averaged ethidium numbers” value (adipocytes [1]) was 340 and the “toxicity to dermis / dermal fibroblasts” value (dermal fibroblasts) was “low kill rate”. For the same molecule, the “Dermis, averaged ethidium numbers” value (dermal fibroblasts) was 74, the “Dermis, relative kill rate rated” value (dermal fibroblasts) was 22% and the “toxicity to nerve cells” value (nerve cells) was “low kill rate”. For the same molecule, the “Nerve, averaged ethidium numbers” value (nerve cells) was 58, the “Nerve, relative kill rate rated” value (nerve cells) was 17% and the “Muscle, averaged ethidium numbers” value (skeletal muscle cells) was 73. For the same molecule, the “Muscle, relative kill rate rated” value (skeletal muscle cells) was 21%, the “Endothelial, averaged ethidium numbers” value (endothelial cells) was 92.5 and the “Endothelial, relative kill rate rated” value (endothelial cells) was 27%. The “tissue specificity / tissue preference” value [2] was “most strongly tissue preferential”.
For `O=Cc1c[nH]c2cc(OCc3ccccc3)ccc12` [Compound 44, 6-(benzyloxy)-1H-indole-3-carbaldehyde], the “Adipocyte, averaged ethidium numbers” value (adipocytes [1]) was 218, the “Dermis, averaged ethidium numbers” value (dermal fibroblasts) was 134 and the “Dermis, relative kill rate rated” value (dermal fibroblasts) was 61%. For the same molecule, the “Nerve, averaged ethidium numbers” value (nerve cells) was 103, the “Nerve, relative kill rate rated” value (nerve cells) was 47% and the “Muscle, averaged ethidium numbers” value (skeletal muscle cells) was 172. For the same molecule, the “Muscle, relative kill rate rated” value (skeletal muscle cells) was 79%, the “Endothelial, averaged ethidium numbers” value (endothelial cells) was 129 and the “Endothelial, relative kill rate rated” value (endothelial cells) was 59%. The “tissue preference for adipocytes” value [2] was “about 50%” and the “tissue specificity / tissue preference” value [2] was “not as specific as the other compounds tested in this group”.
For `O=C(O)[C@H]1Cc2c([nH]c3ccccc23)[C@@H](c2ccc(O)cc2O)N1` [Compound 78, (1R,3R)-1-(2,4-dihydroxyphenyl)-2,3,4,9-tetrahydro-1H-pyrido [3,4-b]indole-3-carboxylic acid], the “Adipocyte, averaged ethidium numbers” value (adipocytes [1]) was 29.5, the “Dermis, averaged ethidium numbers” value (dermal fibroblasts) was 8.3 and the “Dermis, relative kill rate rated” value (dermal fibroblasts) was 28%. The “Muscle, averaged ethidium numbers” value (skeletal muscle cells) was 8.7, the “Muscle, relative kill rate rated” value (skeletal muscle cells) was 29% and the “Endothelial, averaged ethidium numbers” value (endothelial cells) was 9.8. For the same molecule, the “Endothelial, relative kill rate rated” value (endothelial cells) was 33% and the “tissue specificity / tissue preference” value [2] was “high specificity”.
